From PubChem BioAssay AID2243 (The Scripps Research Institute Molecular Screening Center, 2010) come the findings set out here.

For orientation: CC50 means the concentration that lowers cell viability or growth by half.

For the test, the system named is cytotoxicity counterscreen, ATP luminescence viability. Nature of the test: cell viability loss – luminescence, cytotoxicity control for RBBP9 inhibitor project, late-stage follow-up (AID 2243).

Activity calls are given as the source filed them. How the calls were made is not given here.

As to `C/C(=N\OC(=O)C1CCCCC1)c1nccs1`, the CC50 was > 100 µM (inactive).
